# Columns and labels:
# [1] = tested on: A375Riv human melanoma cells; test: BRAFi-resistant A375Riv xenografts; assay type: in vivo; details: A375Riv xenografts in nude mice, 8TQ 10 mg/kg i.p. vs vehicle
# Description: (§1) FIG. 5. Targeting PSMD14 overcomes resistance to MAPK pathway inhibition. A) Melanoma cell lines resistant to BRAFi (A375RIV, M229R, M238R and M249R) or double resistant to BRAFi and MEKi (A375DDR) were transfected with siCTRL or siPSMD14 #1. After 72h, cell colonies were stained with crystal violet and the absorbance at 595 nm was measured. Box plots show the upper/lower quartile and the median with whiskers from min to max values (n=3, ***P<0.001). B) The above panel of melanoma cells was treated with increasing doses of 8TQ. After 72h, cells were labeled and analyzed. The corresponding IC50 of 8TQ was determined. Box plots indicate the upper/lower quartile and the median with whiskers from min to max values from 2 experiments performed in triplicate. C) 1×10^6 A375Riv human melanoma cells were implanted into both flanks of nude mice. After 2 days, mice were injected i.p every day with 8TQ (10 mg/kg) or vehicle. The tumor size was measured with a caliper and the tumor volume was determined. Data shown are mean±SD of tumor volume (n=12; ***, ***P<0.001, 2way ANOVA).
# All mouse experiments were carried out in accordance with the Institutional Animal Care and the local ethics committee (CIEPAL-Azur agreement NCE/2018-509). […] The tumor size was measured with a caliper and the tumor volume was determined using the formula: Volume=(length×Width2)/2. […]
# [2] = tested on: human (M099, M029, Sbcl2, 501Mel, WM9 and MEWO) and murine (Yumm1.7 and MaNras) melanoma cell lines; test: IC50 of 8TQ on a collection of melanoma cell lines and short-term cultures; assay type: cell-based
# Description: FIG. 3. Pharmacological inhibition of PSMD14 impairs melanoma cell survival. A) Survival analysis performed on A375 cells treated with vehicle or increasing doses of 8TQ (0.27, 0.9, 3 μM). After 72h, cells were stained with crystal violet. Right, cell viability was quantified on lysates by analyzing crystal violet staining at 595 nm. Histograms represent the mean±SD of three independent experiments in duplicate (***P<0.001; ns, non significant). B) Effect of PSMD14 inhibition on melanoma cell viability. A375 cells were treated with vehicle or increasing doses of 8TQ (0.27, 0.9, 3 μM). After 72h, cells were stained with Annexin V-FITC and DAPI and analysed by flow cytometry. Histograms show the percentage of cell death (Annexin V and DAPI positive cells) (mean±SEM, n=3). The calculated mean IC50±sem is shown. (** P<0.005, ***P<0.001). C) A subset of melanoma cells was treated with increasing doses of 8TQ. After 72h, cells were labeled and analyzed as in b). The corresponding IC50 of 8TQ was determined by measuring cell viability. […]
# (§2) After 24 to 48h of treatment, cell viability was evaluated by flow cytometry following staining with Annexin-V-FITC and propidium iodide (PI) (ThermoFisher Scientific) as previously described (27). The percentage of dead cells (Annexin-V-FITC+ and PI+ cells) was then determined. […]
# [3] = tested on: A375 cells; test: Western blot analysis of A375 cells; assay type: cell-based, human; details: data not shown
# Excerpt: Culture reagents and DAPI were purchased from Thermo Fischer Scientific. Vemurafenib (PLX4032) and Trametinib (GSK1120212) were from Selleckchem. Chemicals, cycloheximide (CHX), 8TQ and puromycin were from Merck Millipore. The antibodies used for western blotting were as follow: PSMD14 (Generon), HSP90, p53 (Santa Cruz Biotechnology), K48-linkage specific polyubiquitin (D9D5), p21, CDK2, PARP, cleaved caspase 3, phospho-Thr202/Tyr204 Erk1/2 (Cell Signaling Technology), phospho-Ser139 H2AX (BioLegend). Alexa Fluor TexasRed-conjugated secondary antibodies were from ThermoFisher Scientific.
# [4] = tested on: MaNRas murine melanoma cells (NRasQ61K); test: MaNRas syngeneic melanoma model; assay type: in vivo; details: 8TQ 10 mg/kg i.p. vs vehicle, C57Bl/6J mice
# Description: (§3) FIG. 4. The PSMD14 inhibitor 8TQ inhibits tumor growth in melanoma syngeneic models. A) 2×10^5 murine melanoma cells Yumm1.7 (derived from BrafV600E/Pten null/cdkn2a null mice) were subcutaneously inoculated into both flanks of 6-week old C57Bl/6J female mice. After one week, mice were injected i.p 3 times per week with 8TQ (10 mg/kg) or vehicle. The tumor size was measured with a caliper and the tumor volume was determined. Data shown are mean±SD of tumor volume (n=12; ***, ***P<0.001, 2way ANOVA). B) 4×105 murine melanoma MaNRas (NRasQ61K) were subcutaneously injected into both flanks of 6-week old C57Bl/6J female mice. After two weeks, mice were injected i.p every two days with 8TQ (10 mg/kg) or vehicle. The tumor size was measured with a caliper and the tumor volume was determined. Data shown are mean±sd of tumor volume (n=12; ***, ***P<0.001, 2way ANOVA).
# All mouse experiments were carried out in accordance with the Institutional Animal Care and the local ethics committee (CIEPAL-Azur agreement NCE/2018-509). The animals were maintained on a 12h light/dark cycle in a temperature-controlled facility at 22° C. and were provided with free access to food (standard laboratory chow diet from UAR). […] The tumor size was measured with a caliper and the tumor volume was determined using the formula: Volume=(length×Width2)/2. […]
# [5] = tested on: A375RIV, M229R, M238R, M249R and A375DDR melanoma cells; test: Viability of BRAFi- and BRAFi/MEKi-resistant melanoma cells treated with 8TQ; assay type: cell-based, human
# Description: as §1, §2
# [6] = tested on: A375 cells; test: Survival analysis (crystal violet staining) of A375 cells treated with 8TQ; assay type: cell-based; details: Homo sapiens, A-375, increasing doses of 8TQ, 72h, read-out: calculated IC50 for 8TQ
# Description: FIG. 3. Pharmacological inhibition of PSMD14 impairs melanoma cell survival. A) Survival analysis performed on A375 cells treated with vehicle or increasing doses of 8TQ (0.27, 0.9, 3 μM). After 72h, cells were stained with crystal violet. Right, cell viability was quantified on lysates by analyzing crystal violet staining at 595 nm. Histograms represent the mean±SD of three independent experiments in duplicate (***P<0.001; ns, non significant). B) Effect of PSMD14 inhibition on melanoma cell viability. A375 cells were treated with vehicle or increasing doses of 8TQ (0.27, 0.9, 3 μM). After 72h, cells were stained with Annexin V-FITC and DAPI and analysed by flow cytometry. Histograms show the percentage of cell death (Annexin V and DAPI positive cells) (mean±SEM, n=3). The calculated mean IC50±sem is shown. (** P<0.005, ***P<0.001). C) A subset of melanoma cells was treated with increasing doses of 8TQ. After 72h, cells were labeled and analyzed as in b). The corresponding IC50 of 8TQ was determined by measuring cell viability. Box plots indicating the upper/lower quartile and the median with whiskers from min to max values from 2 experiments performed in triplicate.
# After treatment, cells were fixed in PFA 3% during 20 min, washed with PBS and stained with crystal violet 0.4% in ethanol 20% for 30 min. After washing, crystal violet was solubilized from fixed cells. […]
# [7] = tested on: Yumm1.7 murine melanoma cells (BrafV600E/Pten null/cdkn2a null); test: Yumm1.7 syngeneic melanoma model; assay type: in vivo, C57Bl/6J mice
# Description: as §3
# Slices (4 μm) from paraffin-embedded tumors sections were Tissue sections were processed for dewaxing, rehydration and antigenic heat unmasking using the PT Module Lab Vision™ (ThermoFisher Scientific) according to the manufacturer's instructions. Tissue sections were then labelled with primary antibodies diluted in 1% BSA (wt/vol) followed by standard avidin-biotin-peroxidase staining (Vector Laboratories) using the automated staining system Myreva SS30 (Microm Microtech, France). Primary antibodies were as follows: phospho-H2AX (Merck Millipore), Ki67 (Agilent Dako), cleaved caspase 3 (Cell Signaling Technology).
# All mouse experiments were carried out in accordance with the Institutional Animal Care and the local ethics committee (CIEPAL-Azur agreement NCE/2018-509). The animals were maintained on a 12h light/dark cycle in a temperature-controlled facility at 22° C. and were provided with free access to food (standard laboratory chow diet from UAR). For melanoma xenografts, 2×106 BRAF inhibitor resistant A375Riv human melanoma cells were subcutaneously implanted into both flanks of 6 week old athymic nude nu/nu female mice (Envigo). For melanoma syngeneic models, 2 to 4 105 of Yumm1.7 or MaNras murine melanoma cells were subcutaneously inoculated into 6 week old C57Bl/6J female mice (Envigo). When tumors became palpable (0.05 to 0.1 cm3), mice were injected intraperitoneally once every other day with vehicle or 10 mgkg-1 8TQ in a 90:9:1 (v/v/v) mixture of Labrafil, dimethylacetamide, and Tween 80. The tumor size was measured with a caliper and the tumor volume was determined using the formula: Volume=(length×Width2)/2. At the end of the experiment, mice were sacrificed and tumors dissected, weighed, fixed and embedded in paraffin for IHC analysis.
# [8] = tested on: A375 cells; test: Cell death by Annexin V-FITC/DAPI flow cytometry; assay type: cell-based, human; details: 8TQ 0.27, 0.9, 3 μM, 72h
# Description: FIG. 2. PSMD14 depletion has a potent cytotoxic effect on melanoma cells. A) Experimental validation of the siDUB screening on melanoma cell proliferation. 501Mel and A375 melanoma cells were plated 10,000 cells/well in a 24-well plate and transfected with a control siRNA (siCTRL) or 3 different siRNA sequences targeting PSMD14 (siPSMD14 #1, #2 and #3). Cell confluence was imaged for 48 h using the IncuCyte Zoom live imaging system. Curves represent normalized cell proliferation of each siRNA relative to siCTRL. Data are the mean±SEM (n=3). ***P<0.001, 2-way ANOVA analysis. B) Colony survival analysis after PSMD14 depletion (siPSMD14 #1, #2 and #3) compared to control siRNA (siCTRL). 501Mel and A375 cells were transfected with siRNAs, re-seeded at 2,000 cells/well and grown for 1 week. Colonies were stained with crystal violet. […] Box plots show the mean±SEM of crystal violet quantification relative to siCTRL (n=3, ***P<0.001.). […] After 72h, cells were labeled with Annexin V-FITC and DAPI and analysed by flow cytometry. […]
# FIG. 3. […] Right, cell viability was quantified on lysates by analyzing crystal violet staining at 595 nm. […] After 72h, cells were stained with Annexin V-FITC and DAPI and analysed by flow cytometry. […] The calculated mean IC50±sem is shown. […] After 72h, cells were labeled and analyzed as in b). The corresponding IC50 of 8TQ was determined by measuring cell viability. […]
# [9] = tested on: 501Mel and A375 melanoma cells; test: Phosphorylated H2AX after 8TQ; assay type: cell-based, human; details: increased doses of 8TQ, 48h, data not shown
# Description: For phospho-H2AX (pH2AX) foci staining, cells grown on coverslips or culture dishes were fixed with 4% paraformaldehyde and permeabilized in 50 mM Tris-HCl, pH 7.4, 150 mM NaCl, 0.3% Triton X-100 for 1 h at 4° C. Cells were then blocked in 50 mM Tris-HCl, pH 7.4, 150 mM NaCl, 0.03% Triton X-100, 1% BSA for 1 h at 37° C., and stained with anti-phospho-Ser139 H2AX (1:1000, Merck Millipore #05-636) at 4° C. overnight. After extensive washings, cells were stained with Alexa Fluor TexasRed-conjugated secondary antibodies and 10 μg/ml DAPI for 1 h at room temperature. After washing, cells were mounted with ProLong Gold Antifade Mounting Oil (Thermo Fischer Scientific). The percentage of cells positive for phospho-H2AX foci was determined by analyzing 200 randomly chosen cells and the foci-positive cells were defined as nuclei with at least one large focus or a granular pattern of fluorescence.
# [10] = Yumm1.7 tumors, vs vehicle, data not shown
# [11] = immunostaining on tumor sections, data not shown
structure (smiles),measurement,setting,value
"Sc1cccc2cccnc12 [8TQ, quinoline-8-thiol]",tumor development,[1],dramatically abrogated
same,IC50,"[2]; collection of human and murine melanoma cell lines and short-term cultures, 72h",250 to 750 nM
same,melanoma cell viability,[2]; irrespective of the mutational status or the disease stage,markedly inhibited
same,accumulation of poly-ubiquitinated proteins,[3],induced the accumulation
same,expression of cleaved PARP,[3],induced
same,expression of cleaved caspase-3,[3],induced
same,MaNRAS tumor growth,[4],significantly decreased
same,viability of BRAFi- and BRAFi/MEKi-resistant cells,"[5]; doses of 8TQ, 72h",potently decreased
same,IC50 of 8TQ,[5]; resistant cells compared with parental counterparts,in the same μM range
same,IC50,[6],660 nM
same,Yumm1.7 tumor growth,"[7]; 8TQ 10 mg/kg i.p. vs vehicle, C57Bl/6J mice",significantly decreased
same,tumor size at the experiment endpoint,[7]; [10],markedly reduced
same,tumor weight at the experiment endpoint,[7]; [10],markedly reduced
same,staining of the apoptosis marker cleaved caspase 3,[7]; [11],increased staining
same,staining of the cell proliferation marker Ki67,[7]; [11],decreased staining
same,apoptotic cell death (Annexin V-FITC/DAPI staining),[8],dose-dependent increase
same,expression of phosphorylated H2AX,[9],elevated expression

# Reference: US20230076415A1, “METHODS AND COMPOSITIONS FOR TREATING MELANOMA” (INSERM (INSTITUT NATIONAL DE LA SANTÉ ET DE LA RECHERCHE …, priority 2020, published 2023)
